Measurements reported in PubChem BioAssay (NCI).
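Values below derive from 48-hour exposures of cells grown in 96-well plates, with endpoints linearly interpolated between the two concentrations bracketing the appropriate inhibition level. TGI denotes the concentration required for complete inhibition of growth.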

How the values were obtained:
Experiment in all cases: NCI tumour cell line growth inhibition, 48 h
[1] = system: OVCAR-5 ovarian
[2] = system: SR leukemia
[3] = system: SN12C renal
[4] = system: PC-3 prostate
[5] = system: NCI-H226 lung
[6] = system: OVCAR-4 ovarian
[7] = system: NCI-H522 lung
[8] = system: RPMI-8226 leukemia
[9] = system: CAKI-1 renal
[10] = system: HCC-2998 colon
[11] = system: A549 NSCLC
[12] = system: SF-295 CNS
[13] = system: SNB-75 CNS
[14] = system: TK-10 renal
[15] = system: EKVX NSCLC
[16] = system: NCI/ADR-RES ovarian
[17] = system: NCI-H23 lung
[18] = system: NCI-H460 lung
[19] = system: CCRF-CEM leukemia
[20] = system: SF-539 CNS

| SMILES | TGI [1] [µM] | TGI [2] [µM] | TGI [3] [µM] | TGI [4] [µM] | TGI [5] [µM] | TGI [6] [µM] | TGI [7] [µM] | TGI [8] [µM] | TGI [9] [µM] | TGI [10] [µM] | TGI [11] [µM] | TGI [12] [µM] | TGI [13] [µM] | TGI [14] [µM] | TGI [15] [µM] | TGI [16] [µM] | TGI [17] [µM] | TGI [18] [µM] | TGI [19] [µM] | TGI [20] [µM] |
| --- | --- | --- | --- | --- | --- | --- | --- | --- | --- | --- | --- | --- | --- | --- | --- | --- | --- | --- | --- | --- |
| CCN(CC)C(=S)SS(=O)(=O)c1ccc(NC(C)=O)cc1 | 60.5 | > 51.6 | 39.1 | > 100 | > 100 | 54.3 | 0.84 | 44 | 41.8 | > 100 | 43.4 | > 100 | 97.2 | > 76 | > 100 | 95.4 | 62.3 | > 100 |  |  |
| CC1=C2CN(C(=O)OCC(C)C)CCC2C2=C(C(=O)c3ccccc3C2=O)C1C (configuration not stated) |  | > 10 | > 10 | > 10 |  | > 10 |  | > 10 | > 10 | > 10 | > 10 | > 10 | > 10 | > 10 | > 10 |  | > 10 |  | > 10 |  |
| COc1ccc(-n2sc3ncc([N+](=O)[O-])cc3c2=O)cc1 | > 100 | > 100 | > 100 | > 100 | > 100 | > 100 | > 100 | > 100 |  | > 100 | > 100 | > 100 | > 100 | > 100 | > 100 | > 100 | > 100 | > 100 | > 100 | > 100 |
| COc1cccc(C2c3cc4c(cc3OC(N3CCCCC3)C2C)OCO4)c1OC (configuration not stated) | 79.4 | 4.02 | 96.8 | 42.8 | 34.8 |  | 29 | 21.6 | 11 | 33 | 22.3 | 22.5 | 66.7 | 84.1 | 54.5 |  | 71.3 | 27.9 | 15.2 | 33.9 |
| Cn1c(=O)n2n(c1=O)[C@@H](c1ccccc1)[C@H]2c1ccccc1 | > 100 | > 100 | > 100 | > 100 | > 100 | > 100 |  |  | > 100 | > 100 | > 100 | > 100 | > 100 | > 100 | > 100 | > 100 | > 100 | > 100 | > 100 | > 100 |
| O=C1OC(CS(=O)(=O)c2ccccc2)CC1O (configuration not stated) | > 100 | > 100 | > 100 | > 100 | > 100 | > 100 | > 100 | > 100 | > 100 | > 100 | > 100 | > 100 |  | > 100 | > 100 | > 100 | > 100 | > 100 | > 100 | > 100 |
| O=[N+]([O-])c1ccc(C(=Nc2ccccc2)SSC(=Nc2ccccc2)c2ccc([N+](=O)[O-])o2)o1 | 5.04 | > 100 | 4.48 | 4.03 | 56.4 | 3 | 0.755 |  | 4.67 | 3.41 |  | 8.31 | 3.45 | 13.9 | 3.48 | 7.43 | 3.38 | > 25.5 |  | 4.01 |
| CC[C@H]1C=CCC[C@@]2(C[C@@H]3CC[C@H]4[C@H](C(=O)OCCCCCCCCCCCCCCCC(=O)N(CCCN)C[C@@H](O)CCN)[C@]5(CCC[C@@H](C)O5)NC(=[N+]34)N2)O1 | 1.78 | 1.23 | 2.19 | 2.06 | 3.32 | 2.44 | 2.72 | 0.833 | 1.87 | 1.82 | 1.74 | 3.31 |  | 2.98 | 2.66 | 4.81 | 3.21 | 1.87 |  | 3.32 |
| Cc1ccc(C2SCC(=O)N2NC(=O)c2ccncc2)s1 (configuration not stated) | > 100 | > 100 | > 100 | > 100 | > 100 | > 100 | > 100 | > 100 | > 100 | > 100 | > 100 | > 100 |  | > 100 | > 100 | > 100 | > 100 |  | > 100 | > 100 |
| Cc1ccc(/C=N/NS(=O)(=O)c2ccc(/C=C3\NC(=O)NC3=O)cc2)cc1 | > 100 | > 100 | > 100 | > 100 | > 100 | > 100 |  | > 100 | > 100 | > 100 | > 100 | > 100 | 47.7 | > 100 | > 100 | > 100 | > 100 | > 100 | > 100 |  |
| C#CCCOC(=O)c1ccccc1OC(C)=O | > 100 | > 100 | > 100 | > 100 | > 100 | > 100 | > 100 | > 100 | > 100 |  |  | > 100 | > 100 | > 100 | > 100 | > 100 | > 100 | > 100 | > 100 | > 100 |
| C=CCC1C(=O)Nc2cccc3ncn(c23)C1=O (configuration not stated) | > 100 | > 100 | > 100 | > 100 | > 100 | > 100 |  | > 100 | > 100 |  | > 100 | > 100 | > 100 |  | > 100 | > 100 | > 100 | > 100 | > 100 | > 100 |
